1 compound from article PMC8779255, “Determining the Anticancer Activity of Sphingosine Kinase Inhibitors Containing Heteroatoms in Their Tail Structure” (Pharmaceutics, 2022) can be followed below.

One series has as its target T1, PP2A in HCT116 cells (Homo sapiens, UniProt P67775).
T1 construct: endogenous in cells; host or cells: HCT116
In words: PP2A activity assay (immunoprecipitation kit). As to conditions: HCT116, 24 h, 20 µM of compounds 10, 11 and 13; vs nontreated control cells. Type of series: cell-based. The protocol:
The activity of PP2A was measured by using the PP2A kit according to the manufacturer’s instruction. The cell lysate was incubated with anti PP2A, C subunit antibody, and protein A agarose slurry for 2 h at 4 °C. The phosphopeptide solution (60 µL) was mixed and incubated at 30 °C for 10 min in a shaker. After a brief centrifuge, a 25 µL sample was liquated in ½ volume microplate and 100 µL malachite green phosphate detection working solution was added. After color development, absorbance was taken at 650 nm in a Multiskan GO microplate reader. A phosphate standard curve was constructed using phosphate standard, and results were calculated using this standard curve. This experiment was repeated three times (n = 6).

The subject of series [1] is PARP, caspase-3, Bcl-2, BAX in HCT116 cells. The experiment in a line: Western blotting of apoptotic pathway-related proteins. Type of series: cell-based, human. The protocol:
(§1) The cell lysate was prepared after successive treatment using mammalian protein extraction buffer (Organic buffer + 10 mM NaCl + detergent pH 7.5) mixed with 1% protease/phosphatase inhibitor cocktail; protein was quantified with BCA assay, boiled at 95 °C for 10 min by adding sample loading buffer, separated using SDS-PAGE, and transferred into methanol-activated PVDF membrane. Primary antibodies were probed overnight in PVDF membrane at 4 °C and […] with subsequent HRP anti-mouse and anti-rabbit secondary antibodies at room temperature. Then, membranes were washed with TBST buffer, and images were detected by Amersham Imager 680 (GE Healthcare; Leiden, WZ, The Netherlands) using ECL solution. Band intensities were analyzed and quantified using Image J software (version 1.53i).
(A western blot detects proteins with antibodies after separation by electrophoresis.)

A further series concerns ceramide in HCT116 cells. The experiment in a line: Ceramide ELISA of cell lysate. Type of series: cell-based, human. As to conditions: HCT116, 20 µM, 24 h. As to the method:
The cellular levels of S1P, sphingosine, and ceramide were detected using an ELISA assay kit (MyBioSource, Inc., San Diego, CA, USA) according to the manufacturer’s instruction. For S1P ELISA, 100 µL cell lysates or standards were added in pre-coated ELISA wells, incubated for 90 min at 37 °C, and treated with 1x biotinylated anti S1P antibody for 1 h. Following treatment of HRP conjugated secondary antibody, the substrate was added and allowed to change the color for 15 min; then, the stop solution was added and absorbance was measured at 450 nm using a Multiskan GO (Thermo Scientific, Waltham, MA, USA) microplate spectrophotometer. […] A stop solution (50 µL) was added to each well, and optical density was measured at 450 nm using a microplate reader. […] After incubation, 50 µL substrate A and B was added to the plate and incubated at 37 °C for 20 min; a stop solution (50 µL) was added to each well and optical density was determined at 450 nm using a microplate reader. The concentration of S1P, sphingosine, and ceramide were calculated as ng/mL using respective standard curves constructed by Skanlt microplate reader software 5.0 (Thermo Scientific, Waltham, MA, USA).
A general note: In an ELISA, binding on a coated surface is turned into a signal by an enzyme label.

A further series concerns the target CYP2C9 (Homo sapiens, UniProt P11712). In words: Inhibition of CYP enzymes activity, human liver microsomes. Conditions: human liver microsomes 0.25 mg/mL, 10 μM, diclofenac substrate. Background: Liver microsomes are vesicles of endoplasmic reticulum, rich in cytochrome P450 enzymes.
For series [2], the system named is AKT and ERK phosphorylation in HCT116 cells. The experiment in a line: Western blotting of pAKT and pERK. Type of series: cell-based, human. Conditions: HCT116, 20 µM. As to the method: as §1
The test system of series [3] is HCT116 cells. In words: Clonogenic (colony formation) assay. Type of series: cell-based, human. As to conditions: HCT116, 5, 10 and 20 μM. The protocol:
(§2) Cell proliferation was assayed by in vitro clonogenic assay. To perform the clonogenic assay, HT29 and HCT116 cells (1000 cells/well) were grown in 6-well plates for 24 h. Cells were treated with compound 10 and FTY720 in different concentrations for 12 h and changed fresh medium. Colonies were allowed to grow for two weeks by changing to a fresh medium every 3 days. Colonies were stained with 0.1% crystal violet prepared in 25% […] for 30 min and washed with running water and photographed with Canon Rebel T6i (Tokyo, Kanto, Japan). Colonies were counted using Image J software version 1.53i, National Institutes of Health, Bethesda, MD, USA). Plating efficiency (PE) and surviving fraction (SF) was calculated using the following formula. (1) [Plating efficiency (PE)]=Number of colony count in control/Number of cell seeded [Surviving Fraction]=Number of colony count /Number of cell seeded […]

Series [4] relates to HT29 cells. In words: Clonogenic (colony formation) assay. Type of series: cell-based, human. Conditions: HT29, 5, 10 and 20 μM. The protocol:
as §2

The subject of series [5] is HCT116 cells. In words: MTT cell viability assay. Type of series: cell-based, human. Conditions: for IC50: Homo sapiens, HCT-116, read-out: relative IC50 (cell viability). The protocol:
(§3) The HT29 and HCT116 cells (human colon cancer), AGS (human gastric cancer), and MIA PaCa-2 cells (human pancreatic cancer) were purchased from Korean Cell Line Bank (Seoul, Korea). Cancer cells were maintained in RPMI (HT29 and AGS) and DMEM (HCT116 and MIA PaCa-2) culture media supplemented with 10% fetal bovine serum (FBS) and 100 U/mL penicillin and streptomycin at 37 °C in a 95% humidified incubator containing 5% CO2. The cytotoxic effect of the compounds was assessed using the MTT cell viability assay. Briefly, 3 × 10^3 cells/well were grown in 96-well plates for 24 h. After treatment with desired concentration of respective compounds for 24 h or 48 h, the EZ-CYTOTOX (10 µM) reagent was added in each well and incubated for 90 min. The absorbance was measured at 450 nm wavelength using Skanlt software 5.0 (Thermo Scientific, Waltham, MA, USA) installed on a Multiskan GO (Thermo Scientific, Waltham, MA, USA) spectrophotometer. Each experiment was independently repeated three times (n = 12).

For series [6], the system named is HT29 cells. In words: MTT cell viability assay. Type of series: cell-based, human. As to conditions: for IC50: Homo sapiens, HT-29, read-out: relative IC50 (cell viability). The protocol:
as §3

Series [7] in a line: In vitro metabolic stability in liver microsomes.
Protocol: Microsome incubation was measured in triplicate in a 1.5 mL Eppendorf tube with 0.1 M potassium phosphate buffer (pH 7.4). […] It has a final volume of 100 mL in the presence of an NADPH regeneration system. In the final incubation mixture, 0.5 mg/mL HLM, 0.1 M potassium phosphate buffer (pH 7.4), and NADPH regeneration system (1 mM NADPH, 10 mM MgCl2) were included. In the pre-incubation mixture, HLM was added, and the mixture was run in a shaking incubator at approximately 350 rpm and 37 °C for 5 min under a Thermomixer (Eppendorf, Hamburg, Germany). Reactions were initiated by the addition of 1 mM NADPH and then quenched by the addition of 40 μL of ice-cold acetonitrile containing 10 μM chlorpropamide (CPP) as an internal standard at 0 and 30 min. After quenching, centrifugation of the incubation mixture was performed at 15,000× g for 5 min at 4 °C. An aliquot of 2 µL of the supernatant was injected into the LC-MS/MS system. The LC-MS/MS system was Xcalibur version 1.1.1 (Thermo Fisher Scientific Inc., Waltham, MA, USA).

Where two headings read alike, the source gives them in different places. Where only a bound is given, the exact number is not on record here.

CYP2C9, sequence (P11712 whole entry): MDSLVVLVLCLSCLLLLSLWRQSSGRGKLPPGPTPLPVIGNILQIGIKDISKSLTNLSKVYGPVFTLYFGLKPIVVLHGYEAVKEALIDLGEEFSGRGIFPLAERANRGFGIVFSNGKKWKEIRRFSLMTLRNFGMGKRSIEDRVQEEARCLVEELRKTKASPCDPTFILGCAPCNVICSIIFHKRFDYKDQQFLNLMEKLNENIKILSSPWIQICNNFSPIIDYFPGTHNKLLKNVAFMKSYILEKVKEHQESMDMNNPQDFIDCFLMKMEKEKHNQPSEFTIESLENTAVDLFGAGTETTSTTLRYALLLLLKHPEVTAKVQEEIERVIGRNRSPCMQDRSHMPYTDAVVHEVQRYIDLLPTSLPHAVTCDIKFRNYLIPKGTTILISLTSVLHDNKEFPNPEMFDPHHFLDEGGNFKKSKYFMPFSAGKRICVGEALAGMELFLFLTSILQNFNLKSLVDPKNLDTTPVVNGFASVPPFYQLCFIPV
T1 sequence (P67775 whole entry): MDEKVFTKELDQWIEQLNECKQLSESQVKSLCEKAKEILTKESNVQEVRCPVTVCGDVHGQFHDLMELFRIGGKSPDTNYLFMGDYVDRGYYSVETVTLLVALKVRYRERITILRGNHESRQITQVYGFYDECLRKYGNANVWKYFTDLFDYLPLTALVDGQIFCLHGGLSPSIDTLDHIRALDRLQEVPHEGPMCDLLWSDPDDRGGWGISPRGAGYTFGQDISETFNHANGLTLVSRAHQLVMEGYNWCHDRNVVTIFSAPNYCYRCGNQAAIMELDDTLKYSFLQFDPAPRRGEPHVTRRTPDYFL
Protocol for CYP2C9: By simultaneously analyzing metabolites, the ability of the six compounds to inhibit drug metabolism enzymes was evaluated.
Metabolites of each CYP coenzyme indicator drug generated through the above reaction were analyzed using the Shimadzu Nexera XR system and TSQ vantage (Thermo). The HPLC column was a Kinetex C18 column (2.1 × 100 mm^2, 2.6 μm particle size; Phenomenex, Torrance, CA, USA), and the mobile phase was distilled water (A) containing 0.1% formic acid and acetonitrile (B) containing 0.1% formic acid. […] The generated metabolites were quantified using MRM (Multiple Reaction Monitoring) quantification modes, and data were analyzed using Xcalibur (version 1.6.1).

Usually IC50 stands for the midpoint of a concentration-inhibition curve. On to `CCCCCCCOc1ccc(CCN2CCN(CCO)CC2)cc1` [Compound 10, 2-(4-(4-(Heptyloxy)phenethyl)piperazin-1-yl)ethanol], for which the PP2A activity increase on PP2A in HCT116 cells is given as 1.73 fold. Also, the “expression of antiapoptotic Bcl-2 protein” value in series [1] (HCT116, 10 and 20 µM) is “decreased the expression of antiapoptotic Bcl-2 protein”. In series [1] (HCT116, 10 and 20 µM), the “expression of proapoptotic protein BAX” value is given as “increased the expression of proapoptotic protein BAX”. Further, in [1] (HCT116, 10 and 20 µM, vs nontreated control), the “cleavage of caspase-3” value was “effectively increased the cleavage”. Moreover, the “cleaved PARP level” value in series [1] (HCT116, vs nontreated groups) is “increased cleaved PARP level”. The ceramide level result in the series on ceramide in HCT116 cells was “increased”. For the same compound, the “CYP2C9 activity (% of control activity)” value at CYP2C9 is more than 100%. Besides, the “phosphorylation of AKT and ERK” value in [2] was “significantly reduced phosphorylation of AKT and ERK”. For the same compound, the colony formation capacity entry in the series on HCT116 cells [3] and in the series on HT29 cells [4] was “effectively inhibits the colony formation capacity” in each case. Further, the “cytotoxic effect, comparison” value in the series on HCT116 cells [5] (HCT116, 10, 20 and 40 µM, Supplementary Figure S1C) is “higher than compounds 11, 13, and PF-543”. The “cytotoxic effect (cell viability)” value with HCT116 cells [5] (HCT116, 20 and 40 µM, 24 h, Figure 2B) is “significant cytotoxic effects in both 20 and 40 µM concentrations”; with HT29 cells [6] (HT29, 20 and 40 µM, 24 h, Figure 2A) it was “more cytotoxic than RB005 and 5-FU”. In addition, the concentration for half-maximal inhibition (IC50) was 10.9 µM in the series with HCT116 cells [5] (HCT116, 24 h treatment); 8.69 µM in the series with HCT116 cells [5] (HCT116, 48 h treatment, 2.5–40 µM); 10.5 µM in the series on HT29 cells [6] (HT29, 24 h treatment); 6.22 µM with HT29 cells [6] (HT29, 48 h treatment, 2.5–40 µM). Also, in series [7] (% remaining after 30 min, 0.5 mg/mL microsomes, NADPH), the “liver microsomal stability, Human (%)” value is on record as 70.3%. For the same compound, the “liver microsomal stability (in words)” value in [7] (human) was “stable”.
